Measurements reported in patent US11331299B2, “Medicinal use of serrulatane diterpenes” (The University of Sydney, priority 2016, dated 2022).
Like-named read-outs stand apart in the source and are kept apart here.

Tested on: 280 human cancer cell lines
Test: OncoPanel cell proliferation assay (10-day)
Format: cell-based
Conditions: Homo sapiens; for EC50: read-out: Cell Count EC50; for IC50: read-out: Cell Count IC50
[1] = SW872, SW872, Soft Tissue - Sarcoma
[2] = SW 954, SW954, Female GU - Vulva
[3] = SW982, SW982, Soft Tissue - Sarcoma
[4] = SW1353, SW1353, Soft Tissue - Osteosarcoma
[5] = TE 125.T, Soft Tissue - Sarcoma
[6] = TE 381.T, Soft Tissue - Sarcoma
[7] = U2OS, Soft Tissue - Osteosarcoma
[8] = U-118-MG, U-118 MG, CNS - Glioma
[9] = VA-ES-BJ, Soft Tissue - Sarcoma
[10] = WM 266-4, WM-266-4, Skin (Melanoma)
[11] = NCI-H295R, Endocrine - Adrenal gland

## CC(C)=CCC[C@H](CO)[C@@H]1CC[C@@H](C)c2c1cc(C)c(O)c2O [Compound 1, 7,8,18-trihydroxyserrulat-14-ene]
[1]
  EC50: 960 nM
  IC50: 960 nM
SW872, SW872, Soft Tissue - Sarcoma, read-out: Cell Count GI50
  GI50: 960 nM
SW900, SW900, Lung - SCLC
  EC50: 3290 nM
  IC50: 3330 nM
SW900, SW900, Lung - SCLC, read-out: Cell Count GI50
  GI50: 3240 nM
SW948, SW948, Colon
  EC50: 2210 nM
  IC50: 2210 nM
SW948, SW948, Colon, read-out: Cell Count GI50
  GI50: 2200 nM
[2]
  EC50: 7630 nM
  IC50: 7630 nM
SW 954, SW954, Female GU - Vulva, read-out: Cell Count GI50
  GI50: 7600 nM
[3]
  EC50: 1070 nM
  IC50: 1070 nM
SW982, SW982, Soft Tissue - Sarcoma, read-out: Cell Count GI50
  GI50: 1070 nM
SW1088, SW1088, CNS - Glioma
  EC50: 2440 nM
  IC50: 2440 nM
SW1088, SW1088, CNS - Glioma, read-out: Cell Count GI50
  GI50: 2430 nM
[4]
  EC50: 1000 nM
  IC50: 1000 nM
SW1353, SW1353, Soft Tissue - Osteosarcoma, read-out: Cell Count GI50
  GI50: 990 nM
SW1417, SW1417, Colon
  EC50: 3150 nM
  IC50: 3150 nM
SW1417, SW1417, Colon, read-out: Cell Count GI50
  GI50: 3070 nM
SW1463, SW1463, Colon
  EC50: 3730 nM
  IC50: 3750 nM
SW1463, SW1463, Colon, read-out: Cell Count GI50
  GI50: 3710 nM
SW1783, SW1783, CNS - Glioma
  EC50: 3190 nM
  IC50: 3190 nM
SW1783, SW1783, CNS - Glioma, read-out: Cell Count GI50
  GI50: 3090 nM
SW-403, SW403, Colon
  EC50: 8090 nM
  IC50: 8110 nM
SW-403, SW403, Colon, read-out: Cell Count GI50
  GI50: 7890 nM
SW-620, SW620, Colon
  EC50: 1480 nM
  IC50: 1480 nM
SW-620, SW620, Colon, read-out: Cell Count GI50
  GI50: 1480 nM
SiHa, Female GU - Cervix
  EC50: 5220 nM
  IC50: 5230 nM
SiHa, Female GU - Cervix, read-out: Cell Count GI50
  GI50: 5170 nM
T24, Bladder
  EC50: 1440 nM
  IC50: 1440 nM
T24, Bladder, read-out: Cell Count GI50
  GI50: 1440 nM
T47D, Breast, read-out: Cell Count GI50
  GI50: 4280 nM
T98G, CNS - Glioma, read-out: Cell Count GI50
  GI50: 2050 nM
TCC-SUP, TCCSUP, Bladder
  EC50: 1750 nM
  IC50: 1750 nM
TCC-SUP, TCCSUP, Bladder, read-out: Cell Count GI50
  GI50: 1720 nM
[5]
  EC50: 6470 nM
  IC50: 9210 nM
TE 125.T, Soft Tissue - Sarcoma, read-out: Cell Count GI50
  GI50: 1480 nM
[6]
  EC50: 1620 nM
  IC50: 1620 nM
TE 381.T, Soft Tissue - Sarcoma, read-out: Cell Count GI50
  GI50: 1590 nM
TF-1, Leukemia
  EC50: 2110 nM
  IC50: 2110 nM
TF-1, Leukemia, read-out: Cell Count GI50
  GI50: 1980 nM
THP-1, Thp1, Leukemia
  EC50: 1380 nM
  IC50: 1380 nM
THP-1, Thp1, Leukemia, read-out: Cell Count GI50
  GI50: 1340 nM
TUR, Lymphoma
  EC50: 5090 nM
  IC50: 5090 nM
TUR, Lymphoma, read-out: Cell Count GI50
  GI50: 5080 nM
[7]
  EC50: 1660 nM
  IC50: 1660 nM
U2OS, Soft Tissue - Osteosarcoma, read-out: Cell Count GI50
  GI50: 1650 nM
U138-MG, U-138MG, CNS - Glioma
  EC50: 6290 nM
  IC50: 6330 nM
U138-MG, U-138MG, CNS - Glioma, read-out: Cell Count GI50
  GI50: 6150 nM
U266B1, Myeloma
  EC50: 3220 nM
  IC50: 3220 nM
U266B1, Myeloma, read-out: Cell Count GI50
  GI50: 3080 nM
U-87 MG, CNS - Glioma
  EC50: 2120 nM
  IC50: 2120 nM
U-87 MG, CNS - Glioma, read-out: Cell Count GI50
  GI50: 2040 nM
[8]
  EC50: 4560 nM
  IC50: 4580 nM
U-118-MG, U-118 MG, CNS - Glioma, read-out: Cell Count GI50
  GI50: 4490 nM
UMUC3, UM-UC-3, Bladder
  EC50: 1850 nM
  IC50: 1850 nM
UMUC3, UM-UC-3, Bladder, read-out: Cell Count GI50
  GI50: 1840 nM
[9]
  EC50: 3670 nM
  IC50: 3670 nM
VA-ES-BJ, Soft Tissue - Sarcoma, read-out: Cell Count GI50
  GI50: 3550 nM
[10]
  EC50: 1150 nM
  IC50: 1150 nM
WM 266-4, WM-266-4, Skin (Melanoma), read-out: Cell Count GI50
  GI50: 1140 nM
WiDr, Colon
  EC50: 2320 nM
  IC50: 2320 nM
WiDr, Colon, read-out: Cell Count GI50
  GI50: 2310 nM
Y79, Eye
  EC50: 5600 nM
  IC50: 5600 nM
Y79, Eye, read-out: Cell Count GI50
  GI50: 5330 nM
YAPC, Pancreas
  EC50: 1910 nM
  IC50: 1910 nM
YAPC, Pancreas, read-out: Cell Count GI50
  GI50: 1900 nM
[11]
  EC50: 14700 nM
  IC50: 14700 nM
T47D, Breast
  EC50: 4630 nM
  IC50: 4630 nM
T98G, CNS - Glioma
  EC50: 2050 nM
  IC50: 2050 nM
read-out: GI50
  GI50: 400 to 1000 nM
